# According to patent publication US5543392A, “Digestive tract cell activating agent of EGF and lactoferrin” (Morinaga Milk Industry Co., Ltd., priority 1992, dated 1996):
# Experiments:
# IEC18 cells [1] = assay: Test 1: DNA synthesis acceleration activity of EGF (3H-thymidine incorporation); format: cell-based, rat; settings: for Quantity of incorporated 3H thymidine, average value (n = 4): 18 h, 1% FBS-DMEM
# Method: This test was carried out to determine an optimum concentration for DNA synthesis acceleration activity of EGF relative to small intestine epithelial cells.
# IEC18 cells (purchased from the American Type Culture Collection) which are epithelial crypt-cells of rat small intestine were inoculated into a 24-well culture plate by 10,000 cells per hole and cultured with Dulbecco modified Eagle's medium containing 10% fetal bovine serum (hereinafter abbreviated as "10% FBS-DMEM") until the cells became confluence (1 ml of medium was used per well). Then, the medium was replaced with 1% FBS-DMEM culture was conducted for another three days to introduce the cell cycle into the resting phase. The medium was replaced with of 1% FBS-DMEM (0.5 ml) containing EGF at various concentrations and culture was conducted for 18 hours. Then, the medium was replaced with DME (0.35 ml) containing ^3 H-thymidine (tritium labeling: thymidine 1 micro curie/ml), the cultuure was conducted for another two hours. The result cells were rinsed twice with phosphate-buffered saline [PBS (-), 2 ml], then, ice-cooled 5% trifluoroacetic acid (5% TFA, 2 ml) was added. This was stored in a refrigerator for an hour. The cells were washed twice with 5% TFA (2 ml) and 1N NaOH (0.4 ml) was added. By holding this at 37° C. for an hour, the cells were dissolved. Then, the solution was neutralized by adding 6N HCl (0.08 ml), and therefore, the quantity of ^3 H-thymidine incorporated into DNA was measured by means of a liquid scintillation counter.
# IEC18 cells [2] = assay: Test 3: proliferation of small intestine epithelial cells (cell count by hemocytometer); format: cell-based, rat; settings: single addition of 10 ng/ml EGF; ten days culture; versus control group with no addition
# Method: ICE18 cells (the same ones as in the Test 1) were inoculated onto a 24-well culture plate by 5,000 cells per well, and were cultured for ten days with 1% FBS DMEM (0.5 ml) containing the following test subjects. During this test period, the medium was replaced on the third and the sixth days, and the number of cells was measured on the third, the sixth and the tenth days. The number of cells was counted by a hemocytometer after treating the cells with 0.25% trypsin solution and suspending them in the solution.
# The test subjects included a sample added with nothing, a sample added with 10 ng/ml EGF, a sample added with 50 μg/ml bLf or bLf-Hy, and a sample added with 10 ng/ml EGF and 50 μg/ml bLf or bLf-Hy.
substance,measurement,setting,value
"EGF: Commercially available mouse submaxillary gland originating EGF (manufactured by Takara Shuzo Company) (NSYPGCPSSYDGYCLNGGVCMHIESLDSYTCNCVIGYSGDRCQTRDLRWWELR; not fully specified; Epidermal growth factor; UniProt P01132 977-1029, looked up)","Quantity of incorporated 3H thymidine, average value (n = 4)",IEC18 cells [1]; EGF concentration 0.08 ng/ml,17874 cpm
same,"Quantity of incorporated 3H thymidine, average value (n = 4)",IEC18 cells [1]; EGF concentration 0.2 ng/ml (so in the source),25398 cpm
same,"Quantity of incorporated 3H thymidine, average value (n = 4)",IEC18 cells [1]; EGF concentration 0.4 ng/ml,19644 cpm
same,"Quantity of incorporated 3H thymidine, average value (n = 4)",IEC18 cells [1]; EGF concentration 10.0 ng/ml,26152 cpm
same,"Quantity of incorporated 3H thymidine, average value (n = 4)",IEC18 cells [1]; EGF concentration 50.0 ng/ml,22665 cpm
same,optimum working concentration of EGF for DNA synthesis,IEC18 cells [1]; IEC18 cells,10 ng/mL
same,number of cells (FIGS. 3 and 4),IEC18 cells [2],absence of effect
